From US20110118283A1, “Substituted Pyrrolidine-2-Carboxamides” (priority 2009, published 2011)

Target: MDM2 (Homo sapiens, UniProt Q00987)
Assay: HTRF assay of inhibition of the p53-MDM2 interaction
Assay type: binding
Details: GST-MDM2 / biotinylated p53 peptide, bsa 0.02%
Protocol: The ability of the compounds to inhibit the interaction between p53 and MDM2 proteins was measured by an HTRF (homogeneous time-resolved fluorescence) assay in which recombinant GST-tagged MDM2 binds to a peptide that resembles the MDM2-interacting region of p53 (Lane et al.). Binding of GST-MDM2 protein and p53-peptide (biotinylated on its N-terminal end) is registered by the FRET (fluorescence resonance energy transfer) between Europium (Eu)-labeled anti-GST antibody and streptavidin-conjugated Allophycocyanin (APC).
[…] Add 10 uL diluted compounds (1:5 dilution in reaction buffer) to each well, mix by shaking. Add 20 uL biotinylated p53 peptide (180 nM working solution) in reaction buffer to each well and mix on shaker. Incubate at 37° C. for 1 h. Add 20 uL streptavidin-APC and Eu-anti-GST antibody mixture (6 nM Eu-anti-GST and 60 nM streptavidin-APC working solution) in TBS buffer with 0.2% BSA, shake at room temperature for 30 minutes and read using a TRF-capable plate reader at 665 and 615 nm (Victor 5, Perkin ElmerWallac). If not specified, the reagents were purchased from Sigma Chemical Co.

Sequence of MDM2 (Q00987 whole entry, species assumed): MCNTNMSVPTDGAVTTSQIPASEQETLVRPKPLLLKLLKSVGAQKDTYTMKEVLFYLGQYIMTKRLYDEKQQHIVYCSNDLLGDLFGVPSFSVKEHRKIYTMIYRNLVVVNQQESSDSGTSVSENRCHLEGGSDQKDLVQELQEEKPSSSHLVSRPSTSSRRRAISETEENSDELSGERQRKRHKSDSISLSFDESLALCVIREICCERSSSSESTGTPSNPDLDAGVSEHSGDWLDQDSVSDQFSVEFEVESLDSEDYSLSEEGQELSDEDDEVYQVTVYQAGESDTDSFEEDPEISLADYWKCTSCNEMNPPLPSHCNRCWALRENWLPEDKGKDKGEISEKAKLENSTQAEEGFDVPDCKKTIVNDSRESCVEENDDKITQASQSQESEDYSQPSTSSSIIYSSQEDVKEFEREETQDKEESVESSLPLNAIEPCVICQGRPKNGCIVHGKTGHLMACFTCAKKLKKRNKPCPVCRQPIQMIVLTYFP

IC50	Structure (SMILES)
5.86 µM	CC(C)(C)C[C@@H]1N[C@@H](C(=O)NCC[C@H](O)CO)[C@H](c2cccc(Cl)c2)[C@@]1(C#N)c1cc(Br)cs1 (mixture of isomers) [Example 7, rac-(2R,3R,4R,5S)-4-(4-bromo-thiophen-2-yl)-3-(3-chloro-phenyl)-4-cyano-5-(2,2-dimethyl-propyl)-pyrrolidine-2-carboxylic acid ((S)-3,4-dihydroxy-butyl)-amide]
1.23 µM	CC(C)(C)C[C@@H]1N[C@@H](C(=O)NCC[C@H](O)CO)[C@H](c2cccc(Cl)c2F)[C@@]1(C#N)c1ncc(Cl)cc1F (mixture of isomers) [Example 25, rac-(2R,3S,4S,5S)-3-(3-chloro-2-fluoro-phenyl)-4-(5-chloro-3-fluoro-pyridin-2-yl)-4-cyano-5-(2,2-dimethyl-propyl)-pyrrolidine-2-carboxylic acid ((S)-3,4-dihydroxy-butyl)-amide]
1.97 µM	CC(C)(C)C[C@@H]1N[C@@H](C(=O)NCC[C@H](O)CO)[C@H](c2cccc(Cl)c2)[C@@]1(C#N)c1cccnc1 (mixture of isomers) [Example 39, rac-(2R,3R,4R,5S)-3-(3-chloro-phenyl)-4-cyano-5-(2,2-dimethyl-propyl)-4-pyridin-3-yl-pyrrolidine-2-carboxylic acid ((S)-3,4-dihydroxy-butyl)-amide]
0.061 µM	CC(C)(C)C[C@@H]1N[C@@H](C(=O)NCC[C@H](O)CO)[C@H](c2cccc(Cl)c2)[C@@]1(C#N)c1ccc(Cl)nc1 (mixture of isomers) [Example 44, rac-(2R,3R,4R,5S)-3-(3-chloro-phenyl)-4-(6-chloro-pyridin-3-yl)-4-cyano-5-(2,2-dimethyl-propyl)-pyrrolidine-2-carboxylic acid ((S)-3,4-dihydroxy-butyl)-amide]
0.201 µM	COC(=O)c1ccc(NC(=O)[C@@H]2N[C@@H](CC(C)(C)C)[C@](C#N)(c3ccc(Br)cn3)[C@H]2c2cccc(Cl)c2F)cc1 (racemic) [Example 34, rac-4-{[(2R,3S,4S,5S)-4-(5-bromo-pyridin-2-yl)-3-(3-chloro-2-fluoro-phenyl)-4-cyano-5-(2,2-dimethyl-propyl)-pyrrolidine-2-carbonyl]-amino}-benzoic acid methyl ester]
